Experimental data published in ChEMBL document CHEMBL1154016, “An efficient synthesis and biological study of novel indolyl-1,3,4-oxadiazoles as potent anticancer agents” (Bioorg Med Chem Lett, 2009).

Key:
PC-3 = test: Cytotoxicity against human PC3 cells by MTT assay; assay type: functional, cell-based
DU-145 = test: Cytotoxicity against human DU145 cells by MTT assay; assay type: functional, cell-based
LNCaP = test: Cytotoxicity against human LNCAP cells by MTT assay; assay type: functional, cell-based
MDA-MB-231 = test: Cytotoxicity against human MDA-MB-231 cells by MTT assay; assay type: functional, cell-based
MCF7 [1] = test: Cytotoxicity against human MCF7 cells by MTT assay; assay type: functional, cell-based
MIA PaCa-2 = test: Cytotoxicity against human MIAPaCa2 cells by MTT assay; assay type: functional, cell-based
MCF7 [2] = test: Selectivity ratio of IC50 for human MIAPaCa2 cells to IC50 for human MCF7 cells; assay type: functional

Row | SMILES | IC50 (PC-3) [µM] | IC50 (DU-145) [µM] | IC50 (LNCaP) [µM] | IC50 (MDA-MB-231) [µM] | IC50 (MCF7 [1]) [µM] | IC50 (MIA PaCa-2) [µM] | Ratio IC50 (MCF7 [2])
1 | FC(F)(F)c1nnc(-c2c[nH]c3ccccc23)o1 | > 1000 | > 1000 | > 1000 | > 1000 | > 1000 | > 1000 | 
2 | COc1ccc(-c2nnc(-c3c[nH]c4ccccc34)o2)c(OC)c1OC | > 1000 | > 1000 | > 1000 | > 1000 | 121 | > 1000 | 
3 | COc1cc(-c2nnc(-c3cn(C)c4ccccc34)o2)ccc1OCc1ccccc1 | > 1000 | > 1000 | > 1000 | > 1000 | 35.2 | 1.4 | 
4 | c1ccc(-c2nnc(-c3c[nH]c4ccccc34)o2)cc1 | > 1000 | > 1000 | > 1000 | > 1000 | 388 | > 1000 | 
5 | COc1cc(-c2nnc(-c3c[nH]c4ccccc34)o2)ccc1OCc1ccccc1 | > 1000 | > 1000 | > 1000 | > 1000 | > 1000 | > 1000 | 
6 | Clc1ccc(-c2nnc(-c3c[nH]c4ccccc34)o2)cc1 | 41.6 | 192 | 583 | > 1000 | 48.2 | 6460 | 
7 | Cc1nnc(-c2c[nH]c3ccccc23)o1 | > 1000 | > 1000 | > 1000 | > 1000 | 198 | 145 | 
8 | c1ccc(Cc2nnc(-c3c[nH]c4ccccc34)o2)cc1 | > 1000 | > 1000 | > 1000 | > 1000 | 39.2 | 934 | 24
9 | COc1cc(-c2nnc(-c3c[nH]c4ccccc34)o2)ccc1O | > 1000 | > 1000 | > 1000 | > 1000 | > 1000 | > 1000 | 
10 | c1cncc(-c2nnc(-c3c[nH]c4ccccc34)o2)c1 | 711 | 170 | 69.4 | > 1000 | 5.4 | 0.9 | 
11 | c1ccc2c(-c3nnc(-c4ccncc4)o3)c[nH]c2c1 | 4.1 | 20.4 | 10 | > 1000 | 1 | 1.6 | 
12 | COc1ccc(-c2nnc(-c3c[nH]c4ccccc34)o2)cc1 | > 1000 | > 1000 | > 1000 | > 1000 | > 1000 | > 1000 | 
13 | COc1ccc(-c2nnc(-c3c[nH]c4ccccc34)o2)cc1OC | > 1000 | > 1000 | > 1000 | > 1000 | 557 | > 1000 | 
